Results reported in patent US20240360145A1, “PYRIMIDINE-2,4-DIAMINE DERIVATIVES AS WELL AS PREPARATION METHOD THEREFOR AND USE THEREOF” (LISEN THERAPEUTICS, INC., priority 2022, published 2024).
Structures can show the parent of a compound that is named as a salt.

Assays:
[1] = tested on: NCI-H1975 cells; test: Cell viability IC50 (MTT), Gefitinib-resistant NCI-H1975 cells; conditions: Homo sapiens, NCI-H1975, 72 h, read-out: cell viability IC50
Protocol: (§1) 1% sodium pyruvate was additionally added when culturing NCI-H1975 cells. All the cells were cultured in a constant temperature incubator containing 5% CO2 at 37° C.
(§2) (1) The cells were cultured to the logarithmic growth phase. […] After centrifugation at room temperature, the supernatant was discarded, and the cell precipitate was resuspended with fresh complete medium. After counting, the cells were placed at room temperature for later use.
(§3) (2) The cells were inoculated into a 96-well plate at a density of 4,000 cells/well with a volume of 100 μl/well. The wells at the outermost circle of the plate were not inoculated with cells, and instead, added with sterile water to reduce evaporation of the culture medium.
(§4) (3) After overnight culture of the cells, the medium was discarded, and a fresh medium containing different concentrations of compounds was added at 200 μl/well. The dilution method of the compound was as follows: first the compound with the highest concentration of 10 μM was prepared, and then the compound was diluted for 3 times in sequence. […] At the same time, a blank control group was set up, in which only an equal volume of culture medium was added without adding cells. Six replicate wells were set up for each group. The cells were placed in the incubator for further culture.
(§5) (4) After 72 hours, 20 μl of MTT solution (5 mg/ml) sterilized by filtration through a 0.22 m filter membrane was added to each well, and the cells were cultured in an incubator at 37° C. for another 4 hours.
(§6) (6) IC50 of the compounds for different cells was calculated based on the light absorption value of each group. Specifically, the absorbance value under treatment with different concentrations of compounds was first subtracted from the absorbance value of the blank well, and then the absorbance value of the 0 μM group was taken as 100% to calculate the cell survival rate after treatment with different concentrations of compounds. That is, survival rate=((ODexperimental well−ODblank control)/(ODnegative control−ODblank control))×100%. IC50 values were calculated based on the survival rate and concentration of the compound.

[2] = tested on: NCI-H1650 cells; test: Cell viability IC50 (MTT), Gefitinib- and Osimertinib-resistant NCI-H1650 cells; conditions: Homo sapiens, NCI-H1650, 72 h, read-out: cell viability IC50
Protocol: as §1, §2, §3, §4, §5, §6

Structure (SMILES)	IC50 [1]	IC50 [2]
CN1CCN(Cc2ccc(Nc3ncc(Cl)c(Nc4ccccc4S(=O)(=O)N(C)C)n3)cn2)CC1 [Compound 2, 2-((5-chloro-2-((6-((4-methylpiperazin-1-yl)methyl)pyridin-3-yl)amino)pyrimidin-4-yl)amino)-N,N-dimethylbenzenesulfonamide]	86.4 nM	466 nM
CN(C)CCN1Cc2ccc(Nc3ncc(Cl)c(Nc4ccccc4S(=O)(=O)N(C)C)n3)cc2C1 [Compound 3, 2-((5-chloro-2-((2-(2-(dimethylamino)ethyl)isodihydroindol-5-yl)amino)pyrimidin-4-yl)amino)-N,N-dimethylbenzenesulfonamide]	28.3 nM	37.8 nM
CN(C)C1CCN(Cc2ccc(Nc3ncc(Cl)c(Nc4ccccc4S(=O)(=O)N(C)C)n3)cc2)C1 (stereo not drawn) [Compound 4, 2-((5-chloro-2-((4-((3-(dimethylamino)pyrrolidin-1-yl)methyl)phenyl)amino)pyrimidin-4-yl)amino)-N,N-dimethylbenzenesulfonamide]	87.7 nM	163 nM
CN1C2CCC1CN(Cc1ccc(Nc3ncc(Cl)c(Nc4ccccc4S(=O)(=O)N(C)C)n3)cc1)C2 [Compound 9, 2-((5-chloro-2-((4-((8-methyl-3,8-diazabicyclo[3.2.1]octan-3-yl)methyl)phenyl)amino)pyrimidin-4-yl)amino)-N,N-dimethylbenzenesulfonamide]	25.3 nM	170 nM
CNCCN1CCc2cc(Nc3ncc(Cl)c(Nc4ccccc4S(=O)(=O)N(C)C)n3)ccc2C1 [Compound 12, 2-((5-chloro-2-((2-(2-(methylamino)ethyl)-1,2,3,4-tetrahydroisoquinolin-6-yl)amino)pyrimidin-4-yl)amino)-N,N-dimethylbenzenesulfonamide]	18.6 nM	75.2 nM

Continued by falling IC50 [1], values first:

IC50 [1]	IC50 [2]	Structure (SMILES)
47.7 nM	250 nM	CN1CCN(Cc2ccc(Nc3ncc(Cl)c(Nc4ccncc4S(=O)(=O)N(C)C)n3)cc2)CC1 [Compound 6, 4-((5-chloro-2-((4-((4-methylpiperazin-1-yl)methyl)phenyl)amino)pyrimidin-4-yl)amino)-N,N-dimethylpyridine-3-sulfonamide]
29.1 nM	32.5 nM	COCCN1CCc2cc(Nc3ncc(Cl)c(Nc4ccccc4S(=O)(=O)N(C)C)n3)ccc2C1 [Compound 11, 2-((5-chloro-2-((2-(2-methoxyethyl)-1,2,3,4-tetrahydroisoquinolin-6-yl)amino)pyrimidin-4-yl)amino)-N,N-dimethylbenzenesulfonamide formate]
21.5 nM	136 nM	C[C@@H]1CN(Cc2ccc(Nc3ncc(Cl)c(Nc4ccccc4S(=O)(=O)N(C)C)n3)cc2)C[C@H](C)N1C [Compound 10, 2-((5-chloro-2-((4-(((3R,5S)-3,4,5-trimethylpiperazin-1-yl)methyl)phenyl)amino)pyrimidin-4-yl)amino)-N,N-dimethylbenzenesulfonamide]
19.8 nM	67.3 nM	CN(C)CCN1CCc2cc(Nc3ncc(Cl)c(Nc4ccccc4S(=O)(=O)N(C)C)n3)ccc2C1 [Compound 13, 2-((5-chloro-2-((2-(2-(dimethylamino)ethyl)-1,2,3,4-tetrahydroisoquinolin-6-yl)amino)pyrimidin-4-yl)amino)-N,N-dimethylbenzenesulfonamide formate]
